Results from PubChem BioAssay AID2060904 (Molecular Pharmacology Branch, DTP, NCI, 2025).

Tested on: 349418-098-R-PDC complex spheroid viability
Test: Anticancer human tumor 349418-098-R-PDC patient-derived lung adenocarcinoma cell line growth inhibition [RAS]
Details: for IC50: curve of first compound; for viability, T/C: stronger effect = lower value
Text: RAS pathway inhibitors in Combinations in Complex Spheroids
A high-throughput screen of multi-cell type tumor spheroids was designed to identify active combinations of RAS pathway inhibitors and targeted small molecules. Complex spheroids include a stromal component modeled by human endothelial cells (HUVEC) and fibroblasts modeled by human mesenchymal stem cells (MSCs). The concentration ranges selected for each drug and investigational agent were based upon clinically achievable concentrations if the clinical Cmax of the agent was known.
Compounds. The drugs and investigational agents: abemaciclib (NSC768073), cobimetinib (NSC768068), divarasib (GDC6063, NSC841802), docetaxel (NSC628503), GDC-1971 (RLY-1971, NSC841576), gemcitabine (NSC613327), inavolisib (NSC800729), ipatasertib (NSC767898), KB-0742 (NSC834161), MRTX-1133 (NSC836407), osimertinib (NSC779217), RMC-4630 (NSC839698), RMC-6236 (NSC851965), RMC-6291 (NSC852671), Ro-3306 (NSC812927), sapanisertib (NSC764658), SN-38 (NSC673596), staurosporine (NSC755774), SY5609 (NSC837396), and tovorafenib (DAY101, NSC766906), were obtained from the National Cancer Institute (NCI) Developmental Therapeutics Program Chemical Repository. The FDA-approved anticancer drug set is available from the NCI Developmental Therapeutics Program. […] The stock solutions were prepared in dimethyl sulfoxide (DMSO, Sigma-Aldrich, St. Louis, MO, cat. D2650) at 800-fold the tested concentration and stored at -70 degrees C prior to their use. All drugs and investigational agents were tested over a range starting from a high concentration at or near the clinical Cmax and decreasing in half-log increments. If the clinical Cmax for an agent had not been determined, the highest concentration tested was 10 microM.
Cell Culture. All cells were maintained in an incubator at 37 degrees C and 5% CO2 with 95% humidity. The PDC lines were cultured according to standard operating procedures established by the NCI PDMR. All PDCs were thawed and cultured in Matrigel-coated flasks prepared with a working solution of 1X Ham's F-12 nutrient mix, without supplementation (Invitrogen, Waltham, MA, cat. 11765054), 100 U/mL penicillin-streptomycin (Invitrogen, cat. 15140122), and 2.5% Matrigel (Corning Inc., Corning, NY, cat. 354248) for the first three passages. The 362531-283-R-J2-PDC and 782815-120-R-J1-PDC lines were cultured in 6C/Colon 1B media, which includes advanced DMEM/F-12 (Thermo Fisher Scientific, cat. 12634028), 10 mM HEPES (Thermo Fisher Scientific, cat. 15630080), 1X GlutaMAX supplement (Thermo Fisher Scientific, cat. 35050061), 0.1 mg/mL primocin (InvivoGen, San Diego, CA, cat. ant-pm-2), 10% defined fetal bovine serum, heat inactivated (HyClone Laboratories Inc., Logan, UT, cat. SH30070.03HI), 50% L-WRN conditioned media (ATCC, cat. CRL-3276), 1.25 mM N-Acetyl-L-cysteine (Sigma-Aldrich, cat. A9165), 10 mM nicotinamide (Sigma-Aldrich, cat. N0636), 1X B-27 supplement (Thermo Fisher Scientific, cat. 17504044), 1X N-2 supplement (Thermo Fisher Scientific, cat. 17502048), 50 ng/mL human EGF (Thermo Fisher Scientific, cat. PHG0311), and 10 microM Y-27632 dihydrochloride (Tocris Bioscience, cat. 1254). The K12877-001-R-J1-PDC line was cultured in 6I media, which includes all 6C/Colon 1B media plus 10 ng/mL human FGF-10 (PeproTech, cat. 100-26), 1 ng/mL human FGF-2 (PeproTech, cat. 100-18B), 1 µM prostaglandin E2 (Tocris Bioscience, cat. 2296), […] hydrocortisone (Sigma-Aldrich, cat. H4001), and […] bovine insulin (Sigma-Aldrich, cat. I6634). The K86415-001-R-J1-PDC line was cultured in 6D media, which includes all 6C/Colon 1B media components minus the L-WRN conditioned media. The 485176-168-R4-J1-PDC was cultured in PANC media, which includes all 6C/Colon 1B media plus 100 ng/mL human FGF-10 (PeproTech, cat. 100-26), 500 nM SB-431542 (Selleckchem, cat. S1067), and 10 nM gastrin (Tocris Bioscience, cat. 3006). […]
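Note: spheroids exposed to compound for seven days before viability readout.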

How did the IC50 (second compound 0.000949 µM) turn out when NC1c2ccccc2OC12CCN(c1cnc3c(N4CCCc5ncccc54)n[nH]c3n1)CC2 (stereo not drawn) + CCn1c(-c2cc(N3CCN(C)CC3)cnc2C(C)OC)c2c3cc(ccc31)-c1csc(n1)CC(NC(=O)C1CC1C)C(=O)N1CCCC(N1)C(=O)OCC(C)(C)C2 was run?
The IC50 was greater than 10000 nM.

And the IC50 (second compound 0.003 µM)?
The IC50 was greater than 10000 nM.

What about the IC50 (second compound 0.00949 µM) of the same compound?
The IC50 was greater than 10000 nM.

What about the IC50 (second compound 0.03 µM) of the same compound?
The IC50 was greater than 10000 nM.

And the IC50 (second compound 0.0949 µM)?
The IC50 was greater than 10000 nM.

What about the IC50 (second compound 0.3 µM) of the same compound?
The IC50 was greater than 10000 nM.

And the viability, T/C (second compound 0.000949 µM, first compound 0.0316 µM)?
The viability, T/C was 91.7%.

And the viability, T/C (second compound 0.000949 µM, first compound 0.1 µM)?
The viability, T/C was 98.8%.

What about the viability, T/C (second compound 0.000949 µM, first compound 0.316 µM) of the same compound?
The viability, T/C was 111%.

What about the viability, T/C (second compound 0.000949 µM, first compound 1 µM) of the same compound?
The viability, T/C was 90.2%.

What about the viability, T/C (second compound 0.000949 µM, first compound 3.16 µM) of the same compound?
Its viability, T/C is 86.5%.

And the viability, T/C (second compound 0.000949 µM, first compound 10 µM)?
The viability, T/C was 76.8%.

What about the viability, T/C (second compound 0.003 µM, first compound 0.0316 µM) of the same compound?
The viability, T/C was 98.1%.

What about the viability, T/C (second compound 0.003 µM, first compound 0.1 µM) of the same compound?
Its viability, T/C is 120%.

What about the viability, T/C (second compound 0.003 µM, first compound 0.316 µM) of the same compound?
The viability, T/C was 105%.

What about the viability, T/C (second compound 0.003 µM, first compound 1 µM) of the same compound?
The viability, T/C was 102%.

And the viability, T/C (second compound 0.003 µM, first compound 3.16 µM)?
Its viability, T/C is 95.6%.

What about the viability, T/C (second compound 0.003 µM, first compound 10 µM) of the same compound?
The viability, T/C was 76.8%.

And the viability, T/C (second compound 0.00949 µM, first compound 0.0316 µM)?
The viability, T/C was 116%.

What about the viability, T/C (second compound 0.00949 µM, first compound 0.1 µM) of the same compound?
The viability, T/C was 102%.

What about the viability, T/C (second compound 0.00949 µM, first compound 0.316 µM) of the same compound?
The viability, T/C was 97.1%.

What about the viability, T/C (second compound 0.00949 µM, first compound 1 µM) of the same compound?
Its viability, T/C is 98%.

What about the viability, T/C (second compound 0.00949 µM, first compound 3.16 µM) of the same compound?
Its viability, T/C is 90.7%.

And the viability, T/C (second compound 0.00949 µM, first compound 10 µM)?
The viability, T/C was 73.9%.

And the viability, T/C (second compound 0.03 µM, first compound 0.0316 µM)?
Its viability, T/C is 113%.

And the viability, T/C (second compound 0.03 µM, first compound 0.1 µM)?
The viability, T/C was 102%.

What about the viability, T/C (second compound 0.03 µM, first compound 0.316 µM) of the same compound?
The viability, T/C was 111%.

What about the viability, T/C (second compound 0.03 µM, first compound 1 µM) of the same compound?
Its viability, T/C is 107%.

And the viability, T/C (second compound 0.03 µM, first compound 3.16 µM)?
The viability, T/C was 102%.

And the viability, T/C (second compound 0.03 µM, first compound 10 µM)?
The viability, T/C was 72.3%.

What about the viability, T/C (second compound 0.0949 µM, first compound 0.0316 µM) of the same compound?
The viability, T/C was 114%.

What about the viability, T/C (second compound 0.0949 µM, first compound 0.1 µM) of the same compound?
The viability, T/C was 88%.

What about the viability, T/C (second compound 0.0949 µM, first compound 0.316 µM) of the same compound?
The viability, T/C was 110%.

What about the viability, T/C (second compound 0.0949 µM, first compound 1 µM) of the same compound?
The viability, T/C was 107%.

What about the viability, T/C (second compound 0.0949 µM, first compound 3.16 µM) of the same compound?
The viability, T/C was 116%.

What about the viability, T/C (second compound 0.0949 µM, first compound 10 µM) of the same compound?
Its viability, T/C is 78.5%.

What about the viability, T/C (second compound 0.3 µM, first compound 0.0316 µM) of the same compound?
Its viability, T/C is 103%.

And the viability, T/C (second compound 0.3 µM, first compound 0.1 µM)?
Its viability, T/C is 105%.

And the viability, T/C (second compound 0.3 µM, first compound 0.316 µM)?
Its viability, T/C is 113%.

What about the viability, T/C (second compound 0.3 µM, first compound 1 µM) of the same compound?
The viability, T/C was 93.9%.

And the viability, T/C (second compound 0.3 µM, first compound 3.16 µM)?
Its viability, T/C is 104%.

What about the viability, T/C (second compound 0.3 µM, first compound 10 µM) of the same compound?
Its viability, T/C is 64.8%.

Which viability, T/C (compound 0.01 µM) does the source give for CCN1CCN(Cc2ccc(Nc3ncc(F)c(-c4cc(F)c5nc(C)n(C(C)C)c5c4)n3)nc2)CC1 here?
Its viability, T/C is 59.8% [middle of 4 runs].

And the viability, T/C (compound 0.1 µM)?
The viability, T/C was 28.7% [middle of 4 runs].

And the viability, T/C (compound 0.316 µM)?
The viability, T/C was 23.5% [middle of 4 runs].

And the viability, T/C (compound 1 µM)?
The viability, T/C was 17.6% [middle of 4 runs].

Which results are given for CC1(O)CCCC1n1c(=O)c(C(F)F)cc2cnc(NC3CCN(S(C)(=O)=O)CC3)nc21 (stereo not drawn) + C=CC(=O)N1CCN(c2nc(OCC3CCCN3C)nc3c(F)c(-c4nc(N)cc(C)c4C(F)(F)F)c(Cl)cc23)C(C)C1?
IC50 (second compound 0.00316 µM): 76.8 nM; IC50 (second compound 0.01 µM): 102 nM; IC50 (second compound 0.0316 µM): 84.7 nM; IC50 (second compound 0.1 µM): 62.2 nM; IC50 (second compound 0.316 µM): 38.2 nM; IC50 (second compound 1 µM): 53.8 nM; viability, T/C (second compound 0.00316 µM, first compound 0.0316 µM): 75.1%; viability, T/C (second compound 0.00316 µM, first compound 0.1 µM): 43.2%; viability, T/C (second compound 0.00316 µM, first compound 0.316 µM): 22.5%; viability, T/C (second compound 0.00316 µM, first compound 1 µM): 17%; viability, T/C (second compound 0.00316 µM, first compound 3.16 µM): 21.8%; viability, T/C (second compound 0.00316 µM, first compound 10 µM): 4.51%; viability, T/C (second compound 0.01 µM, first compound 0.0316 µM): 59.5%; viability, T/C (second compound 0.01 µM, first compound 0.1 µM): 52.6%; viability, T/C (second compound 0.01 µM, first compound 0.316 µM): 33.2%; viability, T/C (second compound 0.01 µM, first compound 1 µM): 17.8%; viability, T/C (second compound 0.01 µM, first compound 3.16 µM): 15.8%; viability, T/C (second compound 0.01 µM, first compound 10 µM): 3.59%; viability, T/C (second compound 0.0316 µM, first compound 0.0316 µM): 74.9%; viability, T/C (second compound 0.0316 µM, first compound 0.1 µM): 44.4%; viability, T/C (second compound 0.0316 µM, first compound 0.316 µM): 27.2%; viability, T/C (second compound 0.0316 µM, first compound 1 µM): 19.8%; viability, T/C (second compound 0.0316 µM, first compound 3.16 µM): 24.7%; viability, T/C (second compound 0.0316 µM, first compound 10 µM): 3.03%; viability, T/C (second compound 0.1 µM, first compound 0.0316 µM): 64.8%; viability, T/C (second compound 0.1 µM, first compound 0.1 µM): 41%; viability, T/C (second compound 0.1 µM, first compound 0.316 µM): 18.2%; viability, T/C (second compound 0.1 µM, first compound 1 µM): 25.8%; viability, T/C (second compound 0.1 µM, first compound 3.16 µM): 24.2%; viability, T/C (second compound 0.1 µM, first compound 10 µM): 2.89%; viability, T/C (second compound 0.316 µM, first compound 0.0316 µM): 52.6%; viability, T/C (second compound 0.316 µM, first compound 0.1 µM): 43.1%; viability, T/C (second compound 0.316 µM, first compound 0.316 µM): 20.6%; viability, T/C (second compound 0.316 µM, first compound 1 µM): 24.3%; viability, T/C (second compound 0.316 µM, first compound 3.16 µM): 18.1%; viability, T/C (second compound 0.316 µM, first compound 10 µM): 3.81%; viability, T/C (second compound 1 µM, first compound 0.0316 µM): 60.8%; viability, T/C (second compound 1 µM, first compound 0.1 µM): 36%; viability, T/C (second compound 1 µM, first compound 0.316 µM): 26.4%; viability, T/C (second compound 1 µM, first compound 1 µM): 25.4%; viability, T/C (second compound 1 µM, first compound 3.16 µM): 22.6%; viability, T/C (second compound 1 µM, first compound 10 µM): 4.16%
